By inhibition is commonly meant the change of the read-out against control, counted positive when it falls.

The results in this text go back to patent publication US8754130B2, “Compositions of dibromomalonamide and their use as biocides” (Dow Global Technologies LLC, priority 2009, dated 2014).

For assay [1], the system named is consortium of bacteria: mixture of Pseudomonas aeruginosa, Klebsiella pneumoniae, Staphylococcus aureus, and Bacillus subtilis. The experiment in a line: Growth inhibition assay (microtiter plate-based synergy assay). Conditions: 24 h; for I90 value (minimum concentration in which growth of the consortium is at least 90% less than controls): single active alone. The format is cell-based.

Experiment in assay [2]: as above
Type of assay: cell-based. Conditions: 24 h.

Read-outs that look alike come from different tables or passages of the source.

In the case of `Cn1sc2ccccc2c1=O` [MBIT, N-methyl-1,2-benzisothiazolin-3-one], the “% Inhibition of growth by MBIT” value in assay [1] (MBIT 0.78 mg/l alone) is listed as 16%; in assay [1] (MBIT 1.56 mg/l alone), 13%; in assay [1] (MBIT 6.25 mg/l alone), 26%; in assay [1] (MBIT 12.5 mg/l alone), 53%; in assay [1] (MBIT 25.0 mg/l alone), 23%; in assay [1] (MBIT 50.0 mg/l alone), 67%. Also, in assay [1], the “I90 value (minimum concentration in which growth of the consortium is at least 90% less than controls)” value is 100.0 mg/L.

For `Cn1sc(Cl)cc1=O` [CMIT, 5-chloro-2-methyl-4-isothiazolin-3-one], in assay [2] (CMIT 0.39 mg/l alone, read-out: % Inhibition of growth by CMIT), the inhibition at 0.39 µg/mL came to 10%. Further, in assay [2] (CMIT 0.78 mg/l alone, read-out: % Inhibition of growth by CMIT), the inhibition at 0.78 µg/mL came to 97%. Moreover, the inhibition at 1.56 µg/mL in assay [2] (CMIT 1.56 mg/l alone, read-out: % Inhibition of growth by CMIT) turned out to be 96%. Besides, the inhibition at 3.13 µg/mL in assay [2] (CMIT 3.13 mg/l alone, read-out: % Inhibition of growth by CMIT) is 98%. For the same compound, the inhibition at 6.25 µg/mL in assay [2] (CMIT 6.25 mg/l alone, read-out: % Inhibition of growth by CMIT) was found to be 97%. Besides, the inhibition at 12.5 µg/mL in assay [2] (CMIT 12.5 mg/l alone, read-out: % Inhibition of growth by CMIT) is 96%. Also, in assay [2] (CMIT 25.0 mg/l alone, read-out: % Inhibition of growth by CMIT), the inhibition at 25 µg/mL came out at 98%. In addition, in assay [1], the “I90 value (minimum concentration in which growth of the consortium is at least 90% less than controls)” value was 0.78 mg/L.

For the compound `CCCCn1sc2ccccc2c1=O` [BBIT, N-butyl-1,2-benzisothiazolin-3-one], the “% Inhibition of growth by BBIT” value in assay [1] (BBIT 6.25 mg/l alone) is recorded as 32%; in assay [1] (BBIT 12.5 mg/l alone) it was 24%; in assay [1] (BBIT 25.0 mg/l alone), 49%. Also, the “I90 value (minimum concentration in which growth of the consortium is at least 90% less than controls)” value in assay [1] stood at 50.0 mg/L.

Regarding `O=c1[nH]sc2ccccc12` [BIT, 1,2-benzisothiazolin-3-one], the “% Inhibition of growth by BIT” value came to 17% in assay [1] (BIT 3.91 mg/l alone) and 46% in assay [1] (BIT 7.81 mg/l alone). Moreover, the “I90 value (minimum concentration in which growth of the consortium is at least 90% less than controls)” value in assay [1] came to 15.63 mg/L.

In the case of `Cn1sccc1=O` [MIT, 2-methyl-4-isothiazolin-3-one], in assay [2] (MIT 0.19 mg/l alone), the inhibition at […] turned out to be 0%. The inhibition at 0.39 µg/mL in assay [2] (MIT 0.39 mg/l alone, read-out: % Inhibition of growth by MIT) turned out to be 0%. Further, the inhibition at 0.78 µg/mL in assay [2] (MIT 0.78 mg/l alone, read-out: % Inhibition of growth by MIT) came out at 0%. Further, the inhibition at 1.56 µg/mL in assay [2] (MIT 1.56 mg/l alone, read-out: % Inhibition of growth by MIT) is 6%. In addition, in assay [2] (MIT 3.13 mg/l alone, read-out: % Inhibition of growth by MIT), the inhibition at 3.13 µg/mL was 6%. Moreover, the inhibition at 6.25 µg/mL in assay [2] (MIT 6.25 mg/l alone, read-out: % Inhibition of growth by MIT) was determined as 16%. The inhibition at 12.5 µg/mL in assay [2] (MIT 12.5 mg/l alone, read-out: % Inhibition of growth by MIT) came to 38%. Moreover, the inhibition at 25 µg/mL in assay [2] (MIT 25.0 mg/l alone, read-out: % Inhibition of growth by MIT) was determined as 96%. In assay [1], the “I90 value (minimum concentration in which growth of the consortium is at least 90% less than controls)” value was determined as 25 mg/L.

On to `NC(=O)C(Br)(Br)C(N)=O` [DBMAL, 2,2-dibromomalonamide], for which the inhibition at 0.39 µg/mL stood at 11% in assay [2] (Table 2, DBMAL 0.39 mg/l alone, read-out: % Inhibition of growth by DBMAL); 6% in assay [2] (Table 4, DBMAL 0.39 mg/l alone, read-out: % Inhibition of growth by DBMAL); 0% in assay [2] (Table 6, DBMAL 0.39 mg/l alone, read-out: % Inhibition of growth by DBMAL); 3% in assay [2] (Table 8, DBMAL 0.39 mg/l alone, read-out: % Inhibition of growth by DBMAL); 3% in assay [2] (Table 10, DBMAL 0.39 mg/l alone, read-out: % Inhibition of growth by DBMAL); 3% in assay [2] (Table 12, DBMAL 0.39 mg/l alone, read-out: % Inhibition of growth by DBMAL). In addition, the inhibition at 0.39 µg/mL in assay [2] (Table 14, DBMAL 0.39 mg/l alone, read-out: % Inhibition of growth by DBMAL) was 3%. Moreover, the inhibition at 0.78 µg/mL in assay [2] (Table 2, DBMAL 0.78 mg/l alone, read-out: % Inhibition of growth by DBMAL) was 13%; in assay [2] (Table 4, DBMAL 0.78 mg/l alone, read-out: % Inhibition of growth by DBMAL), 2%; in assay [2] (Table 6, DBMAL 0.78 mg/l alone, read-out: % Inhibition of growth by DBMAL), 6%; in assay [2] (Table 8, DBMAL 0.78 mg/l alone, read-out: % Inhibition of growth by DBMAL), 1%; in assay [2] (Table 10, DBMAL 0.78 mg/l alone, read-out: % Inhibition of growth by DBMAL), 0%; in assay [2] (Table 12, DBMAL 0.78 mg/l alone, read-out: % Inhibition of growth by DBMAL) it was 0%. Moreover, the inhibition at 0.78 µg/mL in assay [2] (Table 14, DBMAL 0.78 mg/l alone, read-out: % Inhibition of growth by DBMAL) was 0%. Also, the inhibition at 1.56 µg/mL came to 15% in assay [2] (Table 2, DBMAL 1.56 mg/l alone, read-out: % Inhibition of growth by DBMAL); 1% in assay [2] (Table 4, DBMAL 1.56 mg/l alone, read-out: % Inhibition of growth by DBMAL); 0% in assay [2] (Table 8, DBMAL 1.56 mg/l alone, read-out: % Inhibition of growth by DBMAL); 1% in assay [2] (Table 10, DBMAL 1.56 mg/l alone, read-out: % Inhibition of growth by DBMAL); 1% in assay [2] (Table 12, DBMAL 1.56 mg/l alone, read-out: % Inhibition of growth by DBMAL); 0% in assay [2] (Table 14, DBMAL 1.56 mg/l alone, read-out: % Inhibition of growth by DBMAL). The inhibition at 3.13 µg/mL in assay [2] (Table 2, DBMAL 3.13 mg/l alone, read-out: % Inhibition of growth by DBMAL) was found to be 23%; in assay [2] (Table 6, DBMAL 3.13 mg/l alone, read-out: % Inhibition of growth by DBMAL), 11%; in assay [2] (Table 8, DBMAL 3.13 mg/l alone, read-out: % Inhibition of growth by DBMAL) it was 8%; in assay [2] (Table 10, DBMAL 3.13 mg/l alone, read-out: % Inhibition of growth by DBMAL), 0%; in assay [2] (Table 12, DBMAL 3.13 mg/l alone, read-out: % Inhibition of growth by DBMAL), 0%; in assay [2] (Table 14, DBMAL 3.13 mg/l alone, read-out: % Inhibition of growth by DBMAL) it was 0%. Besides, the inhibition at 6.25 µg/mL in assay [2] (Table 2, DBMAL 6.25 mg/l alone, read-out: % Inhibition of growth by DBMAL) amounted to 0%; in assay [2] (Table 4, DBMAL 6.25 mg/l alone, read-out: % Inhibition of growth by DBMAL), 23%; in assay [2] (Table 6, DBMAL 6.25 mg/l alone, read-out: % Inhibition of growth by DBMAL), 28%; in assay [2] (Table 8, DBMAL 6.25 mg/l alone, read-out: % Inhibition of growth by DBMAL), 45%; in assay [2] (Table 10, DBMAL 6.25 mg/l alone, read-out: % Inhibition of growth by DBMAL), 44%; in assay [2] (Table 12, DBMAL 6.25 mg/l alone, read-out: % Inhibition of growth by DBMAL), 44%. Also, the inhibition at 6.25 µg/mL in assay [2] (Table 14, DBMAL 6.25 mg/l alone, read-out: % Inhibition of growth by DBMAL) turned out to be 34%. Moreover, the inhibition at 12.5 µg/mL in assay [2] (Table 2, DBMAL 12.5 mg/l alone, read-out: % Inhibition of growth by DBMAL) amounted to 98%; in assay [2] (Table 6, DBMAL 12.5 mg/l alone, read-out: % Inhibition of growth by DBMAL), 100%; in assay [2] (Table 8, DBMAL 12.5 mg/l alone, read-out: % Inhibition of growth by DBMAL) it was 100%; in assay [2] (Table 10, DBMAL 12.5 mg/l alone, read-out: % Inhibition of growth by DBMAL), 100%; in assay [2] (Table 12, DBMAL 12.5 mg/l alone, read-out: % Inhibition of growth by DBMAL) it was 100%; in assay [2] (Table 14, DBMAL 12.5 mg/l alone, read-out: % Inhibition of growth by DBMAL), 93%. Further, the inhibition at 25 µg/mL in assay [2] (Table 4, DBMAL 25.0 mg/l alone, read-out: % Inhibition of growth by DBMAL) worked out at 100%; in assay [2] (Table 6, DBMAL 25.0 mg/l alone, read-out: % Inhibition of growth by DBMAL) it was 100%; in assay [2] (Table 8, DBMAL 25.0 mg/l alone, read-out: % Inhibition of growth by DBMAL) it was 99%; in assay [2] (Table 10, DBMAL 25.0 mg/l alone, read-out: % Inhibition of growth by DBMAL), 100%; in assay [2] (Table 12, DBMAL 25.0 mg/l alone, read-out: % Inhibition of growth by DBMAL), 100%; in assay [2] (Table 14, DBMAL 25.0 mg/l alone, read-out: % Inhibition of growth by DBMAL), 100%.

Take `CCCCCCCCn1sccc1=O` [OIT, 2-n-octyl-4-isothiazolin-3-one]: the inhibition at 3.91 µg/mL in assay [2] (OIT 3.91 mg/l alone) came to 0%. For the same compound, in assay [2] (OIT 7.81 mg/l alone), the inhibition at 7.81 µg/mL is 7%. Besides, the inhibition at 15.63 µg/mL in assay [2] (OIT 15.63 mg/l alone) was 24%. Moreover, the inhibition at 31.25 µg/mL in assay [2] (OIT 31.25 mg/l alone) was 43%. Further, the inhibition at 62.5 µg/mL in assay [2] (OIT 62.5 mg/l alone) came to 64%. In addition, the inhibition at 125 µg/mL in assay [2] (OIT 125.0 mg/l alone) was 100%. The inhibition at 250 µg/mL in assay [2] (OIT 250.0 mg/l alone) was 100%. Also, in assay [2] (OIT 500.0 mg/l alone), the inhibition at 500 µg/mL came out at 100%. Further, the “I90 value (minimum concentration in which growth of the consortium is at least 90% less than controls)” value in assay [1] worked out at 125 mg/L.
